Results on 5 compounds are retold here after the kinase profiling compilation of Christmann-Franck et al. (2016).

Each structure is given as a SMILES string.

Sequence of EPHB3 (human) (P54753 whole entry, looked up): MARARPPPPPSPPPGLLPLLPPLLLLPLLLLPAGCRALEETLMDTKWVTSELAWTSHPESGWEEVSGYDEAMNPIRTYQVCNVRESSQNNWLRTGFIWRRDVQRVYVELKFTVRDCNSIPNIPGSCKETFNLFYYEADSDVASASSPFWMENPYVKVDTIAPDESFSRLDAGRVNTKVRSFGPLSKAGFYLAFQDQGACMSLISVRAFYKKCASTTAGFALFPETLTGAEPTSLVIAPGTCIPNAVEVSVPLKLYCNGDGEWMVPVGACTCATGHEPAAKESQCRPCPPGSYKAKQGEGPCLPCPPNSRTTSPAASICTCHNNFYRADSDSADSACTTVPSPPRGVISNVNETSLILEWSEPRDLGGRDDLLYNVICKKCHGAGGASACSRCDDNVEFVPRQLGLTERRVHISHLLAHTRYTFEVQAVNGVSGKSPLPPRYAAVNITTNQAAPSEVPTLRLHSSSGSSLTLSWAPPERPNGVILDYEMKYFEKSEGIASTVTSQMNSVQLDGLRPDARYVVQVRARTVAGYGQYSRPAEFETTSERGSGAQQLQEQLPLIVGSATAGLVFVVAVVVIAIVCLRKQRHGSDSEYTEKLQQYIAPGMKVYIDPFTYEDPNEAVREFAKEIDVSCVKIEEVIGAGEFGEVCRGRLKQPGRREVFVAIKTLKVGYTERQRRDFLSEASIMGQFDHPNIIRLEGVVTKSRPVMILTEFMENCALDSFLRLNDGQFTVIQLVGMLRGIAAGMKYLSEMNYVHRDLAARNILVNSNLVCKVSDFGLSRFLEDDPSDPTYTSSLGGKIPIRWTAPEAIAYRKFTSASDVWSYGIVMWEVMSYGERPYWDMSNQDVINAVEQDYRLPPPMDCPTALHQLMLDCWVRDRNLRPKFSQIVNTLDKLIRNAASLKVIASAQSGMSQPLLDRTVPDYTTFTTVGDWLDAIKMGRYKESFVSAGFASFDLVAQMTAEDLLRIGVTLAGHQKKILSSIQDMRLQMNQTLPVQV
Sequence of DYRK2 (human) (Q92630 whole entry, looked up): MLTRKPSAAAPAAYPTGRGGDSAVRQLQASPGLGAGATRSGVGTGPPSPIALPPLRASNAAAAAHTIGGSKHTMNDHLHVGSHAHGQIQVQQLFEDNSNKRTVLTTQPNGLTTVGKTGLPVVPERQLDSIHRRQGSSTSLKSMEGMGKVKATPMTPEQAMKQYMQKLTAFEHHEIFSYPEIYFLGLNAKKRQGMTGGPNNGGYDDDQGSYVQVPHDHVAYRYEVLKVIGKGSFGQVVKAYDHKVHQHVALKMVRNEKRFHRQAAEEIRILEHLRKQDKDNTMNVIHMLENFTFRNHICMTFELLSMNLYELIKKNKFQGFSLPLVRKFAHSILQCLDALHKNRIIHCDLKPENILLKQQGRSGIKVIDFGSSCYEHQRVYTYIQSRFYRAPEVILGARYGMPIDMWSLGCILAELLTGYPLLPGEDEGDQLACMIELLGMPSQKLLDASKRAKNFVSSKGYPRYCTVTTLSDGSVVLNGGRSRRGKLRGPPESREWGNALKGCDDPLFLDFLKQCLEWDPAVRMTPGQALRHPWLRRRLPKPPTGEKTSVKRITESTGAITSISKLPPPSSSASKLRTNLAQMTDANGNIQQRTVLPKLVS
Sequence of PAK4 (human) (O96013 whole entry, looked up): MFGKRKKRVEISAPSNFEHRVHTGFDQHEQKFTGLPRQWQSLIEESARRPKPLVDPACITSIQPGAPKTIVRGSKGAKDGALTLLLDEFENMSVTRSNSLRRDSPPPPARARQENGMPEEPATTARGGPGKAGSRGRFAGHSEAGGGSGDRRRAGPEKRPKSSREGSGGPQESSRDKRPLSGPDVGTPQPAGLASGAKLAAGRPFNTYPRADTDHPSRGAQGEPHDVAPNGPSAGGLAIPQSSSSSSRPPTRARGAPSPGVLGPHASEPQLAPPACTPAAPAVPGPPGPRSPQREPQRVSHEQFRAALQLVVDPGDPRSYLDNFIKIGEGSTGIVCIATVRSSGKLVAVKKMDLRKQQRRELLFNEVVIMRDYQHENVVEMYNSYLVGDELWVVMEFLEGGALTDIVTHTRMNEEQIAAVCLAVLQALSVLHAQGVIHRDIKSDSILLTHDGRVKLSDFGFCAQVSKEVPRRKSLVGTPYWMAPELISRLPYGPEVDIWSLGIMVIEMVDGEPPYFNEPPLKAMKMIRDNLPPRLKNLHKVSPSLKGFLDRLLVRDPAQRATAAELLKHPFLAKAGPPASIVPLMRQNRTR

The first assay concerns the target EPHB3 (human) (UniProt P54753). As to the kind of experiment: radiometric filter-binding kinase assay. Conditions: compound 1.0 µM.
`C[C@H]1CCCC(=O)CCC/C=C/c2cc(O)cc(O)c2C(=O)O1`: the residual activity was found to be 85%.
Still for that read-out and setting: then `O=C1Nc2nc(-c3c(O)cccc3OCC3CC3)cc(C3CCCNC3)c2CO1` (stereo unspecified), with 89%.

The assay is the same for the next values; noted with them: compound 10.0 µM.
As for `C[C@H]1CCCC(=O)CCC/C=C/c2cc(O)cc(O)c2C(=O)O1`, the residual activity was 85%.
Still for that read-out and setting: under `O=C1Nc2nc(-c3c(O)cccc3OCC3CC3)cc(C3CCCNC3)c2CO1` (stereo unspecified) stands 93%.

The target of a further assay is PRKCZ (human) (UniProt Q05513). Briefly: radiometric filter-binding kinase assay. The conditions noted are these: compound 0.1 µM.
Sequence of PRKCZ (human) (Q05513 whole entry, looked up): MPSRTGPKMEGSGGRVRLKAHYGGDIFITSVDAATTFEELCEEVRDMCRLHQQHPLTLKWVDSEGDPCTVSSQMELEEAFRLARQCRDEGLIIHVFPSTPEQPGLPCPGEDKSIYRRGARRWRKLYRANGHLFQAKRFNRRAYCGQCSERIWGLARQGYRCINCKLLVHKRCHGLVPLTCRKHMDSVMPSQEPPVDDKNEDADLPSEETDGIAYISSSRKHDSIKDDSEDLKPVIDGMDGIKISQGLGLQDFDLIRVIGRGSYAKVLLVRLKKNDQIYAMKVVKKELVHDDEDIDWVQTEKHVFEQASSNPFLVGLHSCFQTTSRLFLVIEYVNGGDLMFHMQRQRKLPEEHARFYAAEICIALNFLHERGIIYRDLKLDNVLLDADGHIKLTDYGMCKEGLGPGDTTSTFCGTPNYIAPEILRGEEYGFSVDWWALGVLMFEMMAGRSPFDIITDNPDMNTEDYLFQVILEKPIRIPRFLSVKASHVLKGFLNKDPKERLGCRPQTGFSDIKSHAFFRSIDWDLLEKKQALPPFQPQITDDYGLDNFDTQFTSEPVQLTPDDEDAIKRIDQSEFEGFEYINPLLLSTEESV
Regarding `COc1ccc2c(c1)c1c3c(c4c5ccccc5n(C)c4c1n2CC(O)CN(C)C)C(=O)NC3=O` (stereo unspecified), the residual activity was 118%.

The assay is the same for the next values; noted with them: compound 1.0 µM.
For the compound `C[C@H]1CCCC(=O)CCC/C=C/c2cc(O)cc(O)c2C(=O)O1`, the residual activity amounted to 98%.
On to `Cc1cccc(Nc2nn(C)c3ncnc(N)c23)c1`, for which the residual activity is 89%.
Still for that read-out and setting: then `COc1ccc2c(c1)c1c3c(c4c5ccccc5n(C)c4c1n2CC(O)CN(C)C)C(=O)NC3=O` (stereo unspecified), with 74%.
Still for that read-out and setting: then `Cn1nc(Nc2ccc(F)cc2)c2c(N)ncnc21`, with 97%.

The assay is the same for the next values; noted with them: compound 10.0 µM.
Consider `C[C@H]1CCCC(=O)CCC/C=C/c2cc(O)cc(O)c2C(=O)O1`, for which the residual activity stood at 86%.
The same measure, in the same setting: under `Cc1cccc(Nc2nn(C)c3ncnc(N)c23)c1` stands 112%.
On the same count and under the same terms, then `O=C1Nc2nc(-c3c(O)cccc3OCC3CC3)cc(C3CCCNC3)c2CO1` (stereo unspecified), with 10%.
On the same count and under the same terms, then `COc1ccc2c(c1)c1c3c(c4c5ccccc5n(C)c4c1n2CC(O)CN(C)C)C(=O)NC3=O` (stereo unspecified), with 62%; and `Cn1nc(Nc2ccc(F)cc2)c2c(N)ncnc21`, with 102%.

For a further assay, the target named is MST4 (human) (UniProt Q9P289). Briefly: radiometric filter-binding kinase assay. The conditions noted are these: compound 1.0 µM.
Sequence of MST4 (human) (Q9P289 whole entry, looked up): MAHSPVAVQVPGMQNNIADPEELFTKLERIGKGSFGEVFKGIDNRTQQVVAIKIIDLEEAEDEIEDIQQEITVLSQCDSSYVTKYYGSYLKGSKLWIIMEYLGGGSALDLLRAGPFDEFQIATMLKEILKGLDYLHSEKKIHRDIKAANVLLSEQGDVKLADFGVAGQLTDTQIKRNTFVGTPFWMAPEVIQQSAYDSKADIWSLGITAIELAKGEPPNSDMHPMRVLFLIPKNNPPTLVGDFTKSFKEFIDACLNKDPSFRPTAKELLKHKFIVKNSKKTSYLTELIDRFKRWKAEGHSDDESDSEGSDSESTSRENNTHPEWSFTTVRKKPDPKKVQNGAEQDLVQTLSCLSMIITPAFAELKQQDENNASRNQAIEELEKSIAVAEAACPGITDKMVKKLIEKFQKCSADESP
For the compound `O=C1Nc2nc(-c3c(O)cccc3OCC3CC3)cc(C3CCCNC3)c2CO1` (stereo unspecified), the residual activity is 105%.

The assay is the same for the next values; noted with them: compound 10.0 µM.
`C[C@H]1CCCC(=O)CCC/C=C/c2cc(O)cc(O)c2C(=O)O1`: the residual activity is 66%.
Still for that read-out and setting: then `O=C1Nc2nc(-c3c(O)cccc3OCC3CC3)cc(C3CCCNC3)c2CO1` (stereo unspecified), with 85%.

In a further assay the test system is AKT1 (human), P31749 [S473D]. As to the kind of experiment: radiometric filter-binding kinase assay. Conditions: compound 0.1 µM.
Consider `COc1ccc2c(c1)c1c3c(c4c5ccccc5n(C)c4c1n2CC(O)CN(C)C)C(=O)NC3=O` (stereo unspecified), for which the residual activity amounted to 70%.

The same assay, now with this note: compound 1.0 µM.
With `Cc1cccc(Nc2nn(C)c3ncnc(N)c23)c1`, the residual activity stood at 100%.
Same read-out and setting: then `O=C1Nc2nc(-c3c(O)cccc3OCC3CC3)cc(C3CCCNC3)c2CO1` (stereo unspecified), with 87%; and `COc1ccc2c(c1)c1c3c(c4c5ccccc5n(C)c4c1n2CC(O)CN(C)C)C(=O)NC3=O` (stereo unspecified), with 34%.
As for `Cn1nc(Nc2ccc(F)cc2)c2c(N)ncnc21`, the residual activity came to 124%.

Still in this assay, the particulars now being: compound 10.0 µM.
For `C[C@H]1CCCC(=O)CCC/C=C/c2cc(O)cc(O)c2C(=O)O1`, the residual activity is 95%.
On the same count and under the same terms, then `Cc1cccc(Nc2nn(C)c3ncnc(N)c23)c1`, with 114%; and `O=C1Nc2nc(-c3c(O)cccc3OCC3CC3)cc(C3CCCNC3)c2CO1` (stereo unspecified), with 55%; and `COc1ccc2c(c1)c1c3c(c4c5ccccc5n(C)c4c1n2CC(O)CN(C)C)C(=O)NC3=O` (stereo unspecified), with 8%.
Same read-out and setting: under `Cn1nc(Nc2ccc(F)cc2)c2c(N)ncnc21` stands 106%.

The next assay addresses PAK4 (human) (UniProt O96013). Briefly: radiometric filter-binding kinase assay. The conditions noted are these: compound 0.1 µM.
Turning to `COc1ccc2c(c1)c1c3c(c4c5ccccc5n(C)c4c1n2CC(O)CN(C)C)C(=O)NC3=O` (stereo unspecified), the residual activity amounted to 99%.

Still in this assay, the particulars now being: compound 1.0 µM.
As to `C[C@H]1CCCC(=O)CCC/C=C/c2cc(O)cc(O)c2C(=O)O1`, the residual activity stood at 95%.
The same measure, in the same setting: then `Cc1cccc(Nc2nn(C)c3ncnc(N)c23)c1`, with 86%; and `O=C1Nc2nc(-c3c(O)cccc3OCC3CC3)cc(C3CCCNC3)c2CO1` (stereo unspecified), with 89%.
On the same count and under the same terms, then `COc1ccc2c(c1)c1c3c(c4c5ccccc5n(C)c4c1n2CC(O)CN(C)C)C(=O)NC3=O` (stereo unspecified), with 82%.
The same measure, in the same setting: under `Cn1nc(Nc2ccc(F)cc2)c2c(N)ncnc21` stands 86%.

The assay is the same for the next values; noted with them: compound 10.0 µM.
`C[C@H]1CCCC(=O)CCC/C=C/c2cc(O)cc(O)c2C(=O)O1`: the residual activity came out at 90%.
Same read-out and setting: under `Cc1cccc(Nc2nn(C)c3ncnc(N)c23)c1` stands 95%.
The same measure, in the same setting: under `O=C1Nc2nc(-c3c(O)cccc3OCC3CC3)cc(C3CCCNC3)c2CO1` (stereo unspecified) stands 54%; under `COc1ccc2c(c1)c1c3c(c4c5ccccc5n(C)c4c1n2CC(O)CN(C)C)C(=O)NC3=O` (stereo unspecified), 66%.
Same read-out and setting: then `Cn1nc(Nc2ccc(F)cc2)c2c(N)ncnc21`, with 97%.

The target in a further assay is INSR (human) (UniProt P06213). Briefly: radiometric filter-binding kinase assay. The conditions noted are these: compound 1.0 µM.
As for `C[C@H]1CCCC(=O)CCC/C=C/c2cc(O)cc(O)c2C(=O)O1`, the residual activity is 107%.
Still for that read-out and setting: then `O=C1Nc2nc(-c3c(O)cccc3OCC3CC3)cc(C3CCCNC3)c2CO1` (stereo unspecified), with 94%.

Staying with this assay, now noted: compound 10.0 µM.
As for `C[C@H]1CCCC(=O)CCC/C=C/c2cc(O)cc(O)c2C(=O)O1`, the residual activity is 102%.
The same measure, in the same setting: under `O=C1Nc2nc(-c3c(O)cccc3OCC3CC3)cc(C3CCCNC3)c2CO1` (stereo unspecified) stands 96%.

In the next assay the target is PRKCA (human) (UniProt P17252). As to the kind of experiment: radiometric filter-binding kinase assay. The conditions noted are these: compound 0.1 µM.
Take `COc1ccc2c(c1)c1c3c(c4c5ccccc5n(C)c4c1n2CC(O)CN(C)C)C(=O)NC3=O` (stereo unspecified): the residual activity worked out at 5%.

The same assay, now with this note: compound 1.0 µM.
Consider `C[C@H]1CCCC(=O)CCC/C=C/c2cc(O)cc(O)c2C(=O)O1`, for which the residual activity stood at 54%.
Same read-out and setting: then `Cc1cccc(Nc2nn(C)c3ncnc(N)c23)c1`, with 102%.
On the same count and under the same terms, then `O=C1Nc2nc(-c3c(O)cccc3OCC3CC3)cc(C3CCCNC3)c2CO1` (stereo unspecified), with 77%.
`COc1ccc2c(c1)c1c3c(c4c5ccccc5n(C)c4c1n2CC(O)CN(C)C)C(=O)NC3=O` (stereo unspecified): the residual activity came out at 1%.
Same read-out and setting: under `Cn1nc(Nc2ccc(F)cc2)c2c(N)ncnc21` stands 120%.

The same assay, now with this note: compound 10.0 µM.
For `C[C@H]1CCCC(=O)CCC/C=C/c2cc(O)cc(O)c2C(=O)O1`, the residual activity came to 69%.
The same measure, in the same setting: then `Cc1cccc(Nc2nn(C)c3ncnc(N)c23)c1`, with 117%.
Regarding `O=C1Nc2nc(-c3c(O)cccc3OCC3CC3)cc(C3CCCNC3)c2CO1` (stereo unspecified), the residual activity came to 31%.
As to `COc1ccc2c(c1)c1c3c(c4c5ccccc5n(C)c4c1n2CC(O)CN(C)C)C(=O)NC3=O` (stereo unspecified), the residual activity stood at 1%.
The same measure, in the same setting: under `Cn1nc(Nc2ccc(F)cc2)c2c(N)ncnc21` stands 121%.

A further assay has as its target DYRK2 (human) (UniProt Q92630). Briefly: radiometric filter-binding kinase assay. Conditions: compound 0.1 µM.
On to `COc1ccc2c(c1)c1c3c(c4c5ccccc5n(C)c4c1n2CC(O)CN(C)C)C(=O)NC3=O` (stereo unspecified), for which the residual activity came to 98%.

The same assay, now with this note: compound 1.0 µM.
As for `C[C@H]1CCCC(=O)CCC/C=C/c2cc(O)cc(O)c2C(=O)O1`, the residual activity was determined as 90%.
Still for that read-out and setting: then `Cc1cccc(Nc2nn(C)c3ncnc(N)c23)c1`, with 93%; and `O=C1Nc2nc(-c3c(O)cccc3OCC3CC3)cc(C3CCCNC3)c2CO1` (stereo unspecified), with 99%; and `COc1ccc2c(c1)c1c3c(c4c5ccccc5n(C)c4c1n2CC(O)CN(C)C)C(=O)NC3=O` (stereo unspecified), with 65%.
The same measure, in the same setting: under `Cn1nc(Nc2ccc(F)cc2)c2c(N)ncnc21` stands 86%.

Still in this assay, the particulars now being: compound 10.0 µM.
Regarding `C[C@H]1CCCC(=O)CCC/C=C/c2cc(O)cc(O)c2C(=O)O1`, the residual activity is 62%.
Same read-out and setting: under `Cc1cccc(Nc2nn(C)c3ncnc(N)c23)c1` stands 89%.
Regarding `O=C1Nc2nc(-c3c(O)cccc3OCC3CC3)cc(C3CCCNC3)c2CO1` (stereo unspecified), the residual activity turned out to be 77%.
Still for that read-out and setting: then `COc1ccc2c(c1)c1c3c(c4c5ccccc5n(C)c4c1n2CC(O)CN(C)C)C(=O)NC3=O` (stereo unspecified), with 70%; and `Cn1nc(Nc2ccc(F)cc2)c2c(N)ncnc21`, with 83%.

In the next assay the target is PKN2 (human) (UniProt Q16513). As to the kind of experiment: radiometric filter-binding kinase assay. Conditions: compound 0.1 µM.
Sequence of PKN2 (human) (Q16513 whole entry, looked up): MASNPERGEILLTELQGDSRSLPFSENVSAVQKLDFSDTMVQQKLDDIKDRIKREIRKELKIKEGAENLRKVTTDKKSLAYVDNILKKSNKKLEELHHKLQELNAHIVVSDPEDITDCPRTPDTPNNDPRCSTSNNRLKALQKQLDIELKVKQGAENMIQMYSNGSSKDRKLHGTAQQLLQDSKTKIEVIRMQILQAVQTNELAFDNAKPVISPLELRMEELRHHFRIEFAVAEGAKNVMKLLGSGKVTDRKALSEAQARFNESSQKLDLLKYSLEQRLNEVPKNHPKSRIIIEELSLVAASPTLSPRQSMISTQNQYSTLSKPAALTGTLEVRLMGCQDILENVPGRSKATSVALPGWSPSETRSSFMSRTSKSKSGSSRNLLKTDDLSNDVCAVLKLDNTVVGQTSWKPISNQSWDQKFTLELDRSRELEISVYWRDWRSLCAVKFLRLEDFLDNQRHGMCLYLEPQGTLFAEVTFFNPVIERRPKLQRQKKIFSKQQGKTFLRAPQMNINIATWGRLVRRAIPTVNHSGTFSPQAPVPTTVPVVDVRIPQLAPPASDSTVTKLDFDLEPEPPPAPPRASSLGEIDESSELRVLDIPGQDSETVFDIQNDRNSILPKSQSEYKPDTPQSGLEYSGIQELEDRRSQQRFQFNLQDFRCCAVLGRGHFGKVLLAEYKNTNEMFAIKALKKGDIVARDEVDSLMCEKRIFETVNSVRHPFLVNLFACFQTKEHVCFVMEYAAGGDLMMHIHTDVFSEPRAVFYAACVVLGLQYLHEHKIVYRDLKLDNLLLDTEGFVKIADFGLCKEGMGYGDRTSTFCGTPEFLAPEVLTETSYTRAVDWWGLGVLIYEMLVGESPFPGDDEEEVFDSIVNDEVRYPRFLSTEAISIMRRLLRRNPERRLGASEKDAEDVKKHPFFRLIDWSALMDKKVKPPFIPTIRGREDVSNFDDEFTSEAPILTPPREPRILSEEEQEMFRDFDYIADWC
Consider `COc1ccc2c(c1)c1c3c(c4c5ccccc5n(C)c4c1n2CC(O)CN(C)C)C(=O)NC3=O` (stereo unspecified), for which the residual activity amounted to 63%.

Still in this assay, the particulars now being: compound 1.0 µM.
For `C[C@H]1CCCC(=O)CCC/C=C/c2cc(O)cc(O)c2C(=O)O1`, the residual activity came to 70%.
Regarding `Cc1cccc(Nc2nn(C)c3ncnc(N)c23)c1`, the residual activity stood at 119%.
On the same count and under the same terms, under `O=C1Nc2nc(-c3c(O)cccc3OCC3CC3)cc(C3CCCNC3)c2CO1` (stereo unspecified) stands 69%; under `COc1ccc2c(c1)c1c3c(c4c5ccccc5n(C)c4c1n2CC(O)CN(C)C)C(=O)NC3=O` (stereo unspecified), 13%; under `Cn1nc(Nc2ccc(F)cc2)c2c(N)ncnc21`, 103%.

The assay is the same for the next values; noted with them: compound 10.0 µM.
For `C[C@H]1CCCC(=O)CCC/C=C/c2cc(O)cc(O)c2C(=O)O1`, the residual activity is 33%.
`Cc1cccc(Nc2nn(C)c3ncnc(N)c23)c1`: the residual activity was 110%.
As to `O=C1Nc2nc(-c3c(O)cccc3OCC3CC3)cc(C3CCCNC3)c2CO1` (stereo unspecified), the residual activity turned out to be 36%.
On the same count and under the same terms, under `COc1ccc2c(c1)c1c3c(c4c5ccccc5n(C)c4c1n2CC(O)CN(C)C)C(=O)NC3=O` (stereo unspecified) stands 4%; under `Cn1nc(Nc2ccc(F)cc2)c2c(N)ncnc21`, 109%.

The target of the next assay is MAPK9 (human) (UniProt P45984). As to the kind of experiment: radiometric filter-binding kinase assay. Conditions: compound 0.1 µM.
Sequence of MAPK9 (human) (P45984 whole entry, looked up): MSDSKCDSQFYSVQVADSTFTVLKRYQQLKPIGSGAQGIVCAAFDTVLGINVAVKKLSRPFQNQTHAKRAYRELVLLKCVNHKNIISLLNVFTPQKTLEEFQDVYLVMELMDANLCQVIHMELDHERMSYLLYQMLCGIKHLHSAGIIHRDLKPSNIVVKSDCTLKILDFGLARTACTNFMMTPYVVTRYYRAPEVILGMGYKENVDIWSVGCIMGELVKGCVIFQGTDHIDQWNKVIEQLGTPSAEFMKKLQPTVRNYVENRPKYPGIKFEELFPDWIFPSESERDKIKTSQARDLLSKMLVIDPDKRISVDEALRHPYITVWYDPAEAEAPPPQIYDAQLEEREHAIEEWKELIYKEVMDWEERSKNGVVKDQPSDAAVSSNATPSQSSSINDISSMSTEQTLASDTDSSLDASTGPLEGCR
On to `COc1ccc2c(c1)c1c3c(c4c5ccccc5n(C)c4c1n2CC(O)CN(C)C)C(=O)NC3=O` (stereo unspecified), for which the residual activity stood at 92%.

Staying with this assay, now noted: compound 1.0 µM.
For `C[C@H]1CCCC(=O)CCC/C=C/c2cc(O)cc(O)c2C(=O)O1`, the residual activity was 46%.
As to `Cc1cccc(Nc2nn(C)c3ncnc(N)c23)c1`, the residual activity was 104%.
Same read-out and setting: then `O=C1Nc2nc(-c3c(O)cccc3OCC3CC3)cc(C3CCCNC3)c2CO1` (stereo unspecified), with 90%; and `COc1ccc2c(c1)c1c3c(c4c5ccccc5n(C)c4c1n2CC(O)CN(C)C)C(=O)NC3=O` (stereo unspecified), with 63%; and `Cn1nc(Nc2ccc(F)cc2)c2c(N)ncnc21`, with 122%.

Still in this assay, the particulars now being: compound 10.0 µM.
Take `C[C@H]1CCCC(=O)CCC/C=C/c2cc(O)cc(O)c2C(=O)O1`: the residual activity was 65%.
Still for that read-out and setting: under `Cc1cccc(Nc2nn(C)c3ncnc(N)c23)c1` stands 117%; under `O=C1Nc2nc(-c3c(O)cccc3OCC3CC3)cc(C3CCCNC3)c2CO1` (stereo unspecified), 93%.
Still for that read-out and setting: then `COc1ccc2c(c1)c1c3c(c4c5ccccc5n(C)c4c1n2CC(O)CN(C)C)C(=O)NC3=O` (stereo unspecified), with 35%; and `Cn1nc(Nc2ccc(F)cc2)c2c(N)ncnc21`, with 124%.
